Measured values from article PMC7589491, “Biomimetic Artificial Membrane Permeability Assay over Franz Cell Apparatus Using BCS Model Drugs” (Pharmaceutics, 2020).
Where two headings read alike, the source gives them in different places.

Experiments:
[1] = design: method as in PMID 25840123; details: cited from earlier work
[2] = Franz–PAMPA permeation study (lipid-impregnated artificial membrane on Franz cells); details: for Papp at 12 h, 10 mg/mL: PAMPA; for Permeability classification in Franz–PAMPA: metoprolol as high permeability marker, best fit method
[3] = cited from earlier work
[4] = cited from earlier work; remark: listed apart in the source
Caco-2 cells = details: cited from earlier work
[5] = fraction of dose absorbed in humans; cited from earlier work
[6] = cited from earlier work; remark: listed apart in the source
[7] = pH 7.4; cited from earlier work
in vitro = details: PAMPA
[8] = Dose number (D0) in donor compartment; format: physicochemical; details: 10 mg/mL in donor, not under infinite dose conditions
[9] = Permeation across non-impregnated membrane on Franz cells; format: in vitro ADME; details: PAMPA, pH 7.4; as worded; read-out: Papp non-impregnated one across Franz–PAMPA
[10] = pH 7.4, Papp Franz–PAMPA, PBS pH 7.4, 37 °C, 500 rpm, 12 h, n = 3, best fit of linear portion (sink equation)
[11] = pH 7.4, Papp Non-Sink Arthurson, Franz–PAMPA data, non-sink equation
[12] = pH 7.4, Papp Non-Sink Arthurson
[13] = pH 7.4, Papp across Franz–PAMPA

SMILES | Papp at 12 h, 10 mg/mL [2, 10] [nm/s] | Papp at 12 h, 10 mg/mL [2, 11] [nm/s] | D0 [8] | Papp Corti [3] [nm/s] | Log D pH 7.4 [4] | Papp Caco-2 (Caco-2 cells) [nm/s] | Fa(%) [5] [%] | Intrinsic Solubility [6] [mg/mL] | Papp PAMPA pH 7,4 [7] | also measured
Nc1nc2c(ncn2COCCO)c(=O)[nH]1 [Acyclovir] | 4 | 4 |  | 91 | −1.7 | 3 |  |  |  | Papp Permeapad™ [1]: 79 nm/s; LogP [4]: −1.7
NC(=O)N1c2ccccc2C=Cc2ccccc21 [Carbamazepine] | 59.7 |  |  |  |  |  | 100 | 0.12 |  | 
O=C(O)Cc1ccccc1Nc1c(Cl)cccc1Cl [Diclofenac] |  |  |  |  | 1.2 |  | 100 |  |  | Papp at 12 h, 10 mg/mL (in vitro; pH 7.4, Papp Franz–PAMPA): 681 nm/s; Papp at 12 h, 10 mg/mL (in vitro; [12]): 1050 nm/s; Permeability classification in Franz–PAMPA: highly permeable
CC1(C)S[C@@H]2[C@H](NC(=O)[C@H](N)c3ccc(O)cc3)C(=O)N2[C@H]1C(=O)O [Amoxicillin] | 8.5 | 0.7 |  |  |  | 8 |  |  | 1.5 × 10^−6 cm/s | LogP [4]: 0.9
NS(=O)(=O)c1cc2c(cc1Cl)NCNS2(=O)=O [Hydrochlorothiazide] |  |  |  | 310 |  | 5 | 70 |  | 0.1 × 10^−6 cm/s | Papp at 12 h, 10 mg/mL (in vitro; pH 7.4, Papp Franz–PAMPA): 27.4 nm/s; Papp at 12 h, 10 mg/mL (in vitro; [12]): 27 nm/s
C[C@](N)(Cc1ccc(O)c(O)c1)C(=O)O [Methyldopa] |  |  |  | 32 |  | 2 | 41 |  |  | LogP [4]: 0.4
Cn1c(=O)c2[nH]cnc2n(C)c1=O [Theophylline] |  |  |  |  | −0.05 |  |  | 8.33 |  | 
Cn1c(=O)c2c(ncn2C)n(C)c1=O [Caffeine] | 362 | 533 | ≤ 0.01 | 411 |  |  |  |  | 10.8 × 10^−6 cm/s | Papp Permeapad™ [1]: 204 nm/s; Permeability classification in Franz–PAMPA [2]: highly permeable
CC(C)NCC(O)COc1ccc(CC(N)=O)cc1 (stereo not shown) [Atenolol] |  |  | ≤ 0.01 |  |  |  |  |  |  | 
CN/C(=N/CCSCc1nc[nH]c1C)NC#N [Cimetidine] | 356 | 310 |  |  | 0.4 | 7 | 93 | 6.0 |  | Permeability classification in Franz–PAMPA [2]: highly permeable
OC[C@@H](O)[C@@H](O)[C@H](O)[C@H](O)CO [Mannitol] |  |  |  |  |  |  |  |  |  | Papp at 12 h, 10 mg/mL [2, 13]: 3.2 nm/s; Papp at 10 mg/mL [9]: 3.2 nm/s
CC(C)Cc1ccc(C(C)C(=O)O)cc1 (stereo not shown) [Ibuprofen] |  |  |  |  | 0.7 |  | 93 | 0.01 | 6.8 × 10^−6 cm/s | Papp Permeapad™ [1]: 166 nm/s; LogP [4]: 3.1

Now from value to compound, other results behind:

Papp at 12 h, 10 mg/mL [2, 10] [nm/s] | Papp at 12 h, 10 mg/mL [2, 11] [nm/s] | D0 [8] | SMILES | Papp Corti [3] [nm/s] | Log D pH 7.4 [4] | Papp Caco-2 (Caco-2 cells) [nm/s] | Fa(%) [5] [%] | Intrinsic Solubility [6] [mg/mL] | Papp PAMPA pH 7,4 [7] | also measured
66.1 | 77 |  | COc1cc(Cc2cnc(N)nc2N)cc(OC)c1OC [Trimethoprim] | 455 |  | 830 | 97 |  | 5.0 × 10^−6 cm/s | 
110 | 96 |  | CN1C(C(=O)Nc2ccccn2)=C(O)c2ccccc2S1(=O)=O [Piroxicam] |  | −0.07 | 356 | 100 | 0.11 | 8.2 × 10^−6 cm/s | Permeability classification in Franz–PAMPA [2]: low permeability drugs
 |  | ≤ 0.01 | COc1ccc2cc([C@H](C)C(=O)O)ccc2c1 [Naproxen] |  |  |  |  |  |  | 
331 | 884 | ≤ 0.01 | CC(C)NCC(O)COc1cccc2ccccc12 (stereo not shown) [Propranolol] | 397 |  | 419 |  | 33.0 | 23.5 × 10^−6 cm/s | Permeability classification in Franz–PAMPA [2]: highly permeable
158 | 590 | ≤ 0.01 | COCCc1ccc(OCC(O)CNC(C)C)cc1 (stereo not shown) [Metoprolol] | 481 |  | 237 |  | 1000.0 | 3.5 × 10^−6 cm/s | Papp Permeapad™ [1]: 10 nm/s; Papp at 12 h, 10 mg/mL [2, 13]: 161 nm/s; Papp at 10 mg/mL [9]: 161 nm/s
68.1 | 53 | ≤ 0.01 | CNC(=C[N+](=O)[O-])NCCSCc1ccc(CN(C)C)o1 [Ranitidine] | 215 | −0.3 | 5 |  | 100.0 | 0.5 × 10^−6 cm/s | 
121 |  |  | CC(C(=O)O)c1cccc(C(=O)c2ccccc2)c1 (stereo not shown) [Ketoprofen] | 427 |  | 201 |  |  | 16.7 × 10^−6 cm/s | 
